Experiments:
[1] = target: T1, glucocorticoid receptor (GR), recombinant full-length receptor protein (Homo sapiens, UniProt P04150); test: Glucocorticoid receptor binding assay (fluorescence polarization kit); conditions: 4 nM receptor, 2.5 nM Fluormone GS1 tracer, 2h room temperature, read-out: GR binding ABS IC50
T1 construct: 4 nM recombinant, full-length receptor protein was incubated with increasing concentrations of GR ligand; purchased Life Technologies A-15897
T1 sequence (P04150 1-777): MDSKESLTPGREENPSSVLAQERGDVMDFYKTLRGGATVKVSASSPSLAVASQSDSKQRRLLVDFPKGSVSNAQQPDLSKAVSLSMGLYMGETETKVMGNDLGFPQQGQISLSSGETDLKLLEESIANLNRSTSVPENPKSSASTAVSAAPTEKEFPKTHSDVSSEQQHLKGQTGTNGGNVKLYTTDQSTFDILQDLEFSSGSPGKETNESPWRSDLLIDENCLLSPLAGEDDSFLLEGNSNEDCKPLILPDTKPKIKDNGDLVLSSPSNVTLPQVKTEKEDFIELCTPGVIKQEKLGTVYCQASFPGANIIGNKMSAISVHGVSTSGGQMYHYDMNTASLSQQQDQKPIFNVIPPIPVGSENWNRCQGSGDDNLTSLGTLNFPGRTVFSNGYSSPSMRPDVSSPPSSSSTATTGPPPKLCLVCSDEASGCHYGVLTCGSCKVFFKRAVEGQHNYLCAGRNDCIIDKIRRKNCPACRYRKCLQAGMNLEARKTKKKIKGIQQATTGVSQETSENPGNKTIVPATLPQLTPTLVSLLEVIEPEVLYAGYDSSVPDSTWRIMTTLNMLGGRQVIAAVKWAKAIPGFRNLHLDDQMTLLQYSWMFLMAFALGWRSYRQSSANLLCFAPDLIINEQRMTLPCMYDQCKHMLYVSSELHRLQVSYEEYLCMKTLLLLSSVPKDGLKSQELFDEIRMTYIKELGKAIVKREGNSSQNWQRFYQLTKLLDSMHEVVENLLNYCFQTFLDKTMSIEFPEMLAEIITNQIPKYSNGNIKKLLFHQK
Method: Test compounds were diluted in DMSO over seven orders of magnitude, further diluted in assay buffer and distributed into 384-well plates. The sensitivity limit of this assay was 2-4 nM.
Data were processed by sigmoidal curve fitting.
Absolute (Abs) IC50 and Emax were determined from the curve fits.

[2] = Human liver microsomes (HLM) assay; type: in vitro ADME; conditions: hepatic extraction ratio; 0.5 μM compound, 0.5 mg/mL microsomes, NADPH, 37° C.
Procedure, shortened: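 Compound at 0.5 μM incubated at 37° C. with human liver microsomes (0.5 mg/mL) and NADPH (1 mM) in phosphate buffer pH 7.4, 1% organic solvent; sampled 0-30 minutes. Clapp (mL/min/kg) and Eh (%) derived from depletion rate constant.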

[3] = system: TNF alpha release from human PBMCs; test: Inhibition of TNF alpha release from human PBMCs; type: cell-based; conditions: PBMC, LPS 1 μg/ml, 18 hours, AlphaLISA
Procedure, shortened: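 Fresh or thawed PBMCs in serum-free medium with 0.5% HSA, stimulated with 1 μg/ml LPS plus titrated compound for 18 h at 37° C. TNF-a in supernatant by AlphaLISA; window set with a reference PDE4 inhibitor at 100×IC50. EC50 and Emax from sigmoidal fits.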

| IC50 [1] [nM] | HLM assay Eh (%) [2] | SMILES | EC50 [3] [nM] |
| --- | --- | --- | --- |
| < 100 | * (extraction ratio (Eh)>90%) | C[C@H](NC(=O)C(C)(F)F)[C@H](Oc1ccc(C(=O)O[C@H]2CCCN(C(=O)[C@H]3COC(=O)C3)C2)cc1)c1ccc(C2CC2)cc1 [Compound 58, [(3S)-1-[(3R)-5-oxotetrahydrofuran-3-carbonyl]-3-piperidyl] 4-[(1R,2S)-1-(4-cyclopropylphenyl)-2-(2,2-difluoropropanoylamino)propoxy]benzoate] | < 100 |
| < 100 | * (extraction ratio (Eh)>90%) | CCc1ccc([C@@H](Oc2ccc(C(=O)N[C@H]3CCCN(C(=O)[C@H]4COC(=O)C4)C3)nc2)[C@H](C)NC(=O)C(F)(F)F)cc1 [Compound 66, 5-[(1R,2S)-1-(4-ethylphenyl)-2-[(2,2,2-trifluoroacetyl)amino]propoxy]-N-[(3S)-1-[(3R)-5-oxotetrahydrofuran-3-carbonyl]-3-piperidyl]pyridine-2-carboxamide] | < 100 |
